pIC50: −log10 of the molar value.
Columns and labels:
solubilized γ-secretase [1] = target: T1, solubilized γ-secretase (Homo sapiens, UniProt P49768); test: In vitro Notch cleavage ELISA (NusA-Notch fusion cleaved by solubilized γ-secretase, Val-1744/anti-FLAG sandwich); assay type: biochemical
T1 construct: γ-secretase activity from HeLa cells specifically cleaves the Notch protein; endogenous in cells; host or cells: HeLa cells (detergent-solubilized membrane fraction); substrate made in E. coli BL21 (DE3)
Experimental: In vitro Notch Cleavage ELISA. Notch cleavage was also assessed using an ELISA technique. Prior to setting up a reaction, the required number of wells in a 96-well half-area plate (Costar) were coated with 50 μl of Val-1744 antibody diluted 1:200 in 0.1 M NaHCO3, pH 8.2. Plates were incubated overnight at 4° C. The Notch cleavage reaction was set up as follows. NusA-Notch (0.9 μM) was incubated with 70 mg/ml of solubilized γ-secretase in 50 mM Pipes, pH 7.0, 0.25% CHAPSO in a total volume of 25 μl overnight at 37° C. The next day, the plate coated with Val-1744 antibody was washed 3 times with PBS/0.05% Tween-20 and blocked using 4% BSA in PBS/0.05% Tween-20 for 1 hour. […] The color was allowed to develop for 1 hour and 50 µl of 1M H3PO4 was added and the plates read at 450 nm on a SpectraMax Plus plate reader. […]
Inhibition of Notch Cleavage. […] IC50′s were calculated for inhibitors using the 4-parameter logistic model in the GraFit 4.0 program.
It is based on a sandwich ELISA using the highly specific anti-Val 1744 and anti Flag antibodies to capture the N- and C-terminus of the NICD fragment from the Notch fusion protein in the presence of γ-secretase. […] The chromogenic substrate for HRP, TMB reagent (Kirkegaard & Perry) is added and the color once developed is read at 450 nm on a SpectraMax Plus plate reader.

solubilized γ-secretase [2] = target: T1, solubilized γ-secretase; test: Cleavage of Notch as determined by Western blot analysis; assay type: biochemical
Experimental: Cleavage of Notch as Determined by Western Blot Analysis. NusA-Notch fusion (1.7 μM) was incubated with 70 mg/ml solubilized γ-secretase in 50 mM Pipes, pH 7.0, 0.25% CHAPSO in a total volume of 50 μl overnight at 37° C. DAPT (PHA-568638) was added at varying concentrations. The reactions were stopped with the addition of 12.5 μl of 5× Laemmli buffer (Laemmli 1970) and 30 μl of the mixture was electrophoresed on a 15% SDS-PAGE. Proteins were transferred to nitrocellulose using a semi-dry blot apparatus (Millipore) and blocked for 2 hours using 4% BSA in PBS/0.5% Tween-20. […] The membrane was washed three times with PBS/0.5% Tween-20 followed by incubation with anti-rabbit IgG-HRP (1:5000 dil in 4% BSA in PBS/0.5% Tween-20). The membrane was again washed three times and developed using ECL reagents (Amersham, Piscataway, N.J.).

Row | pIC50 (solubilized γ-secretase [1]; NusA-Notch substrate, overnight 37° C., FIG. 9, read-out: IC50, inhibition of γ-secretase-mediated Notch cleavage) | inhibition of specific cleavage in Notch protein (1743/1744) (solubilized γ-secretase [2]; Western blot probed with Val-1744 antibody, varying concentrations, FIG. 5 lanes 4-8) | Compound | inhibition of cleavage products of Notch fusion protein (solubilized γ-secretase [2]; Western blot using the C-terminal Flag antibody, three immunoreactive bands) | Km (solubilized γ-secretase [1]; Michaelis-Menten fit, 0.11 to 3.6 μM substrate, FIG. 8A, read-out: apparent Km for hydrolysis of Notch fusion protein substrate by solubilized γ-secretase activity) [µM]
1 | 8.62 | inhibited in a dose-dependent manner | C[C@H](NC(=O)Cc1cc(F)cc(F)c1)C(=O)N[C@H](C(=O)OC(C)(C)C)c1ccccc1 [DAPT] | only one cleavage product was inhibitable | 
2 |  |  | Notch fusion protein substrate: soluble fusion of mouse Notch-1 amino acids 1703-1860 to C-terminus of NusA with C-terminal Flag and 8His tags (SEQ ID NO:2) |  | ~0.7

Source: patent US20110098227A1, “Soluble notch-based substrates for gamma secretase and methods and compositions for using same” (priority 2002, published 2011)
